According to patent publication US10214502B2, “Method of inhibiting apolipoprotein-E expression while increasing expression of at least one of LDL-receptor protein or AbcA1 protein comprising administering a small compound” (California State University, Fresno, priority 2016, dated 2019):
Entries after “also recorded” stand apart in the source; their conditions may differ.

Tests used:
apoE3 = experiment: ELISA of apoE3 levels in conditioned media of compound-treated mouse cortical astrocyte cells; type: cell-based; conditions: for ApoE3 Levels in Cell Media, Average of Three Tests / ApoE3 Levels in Cell Media, Test 1 / ApoE3 Levels in Cell Media, Test 2 / ApoE3 Levels in Cell Media, Test 3: 10 μM compound, 24 hours, normalized to cell protein, relative to DMSO treated cells
Procedure: ApoE inhibition can be readily determined by any one of several assays and techniques known to those of ordinary skill in the art, including the enzyme-linked immunosorbant assay (ELISA). In the experimental results shown in Table 2 and FIG. 5, the ELISA assay was carried out on cortical astrocyte cells from mice. Astrocyte cells produce apoE, LDLR and AbcA1 proteins.
The experiments involved treating mouse cortical astrocyte cells with the claimed compounds at 10 μM concentration for an incubation time of 24 hrs. DMSO solvent was used as a negative control, because the compounds were dissolved in DMSO when applied to the cells.
The ELISA technique involves immobilizing an apoE-specific capture antibody to a 96-well plate, addition of sample (conditioned medium from mouse cortical astrocyte cells treated with the compound for 24 hours), and detection of the bound apoE using a second apoE-specific biotinylated antibody and streptavidin-HRP.
The Mabtech ELISA kit detects the presence of the three apoE isoforms: apoE2, apoE3, and apoE4.
To obtain the data shown in Table 2 and FIG. 5, the mouse cortical astrocyte cells were maintained in DMEM medium (Invitrogen) supplemented with 10 mM HEPES, 1 mM sodium pyruvate, 4.5 g/L glucose, 1% penicillin/streptomycin, and 10% fetal bovine growth serum (Invitrogen) at 37° C., with 5% CO2.
The cells (6×10^4 cells/24-well plate) were grown for 1 day in RPMI, followed by a 24 hour equilibration in serum-free Opti-MEM (Life Technologies). Treatments were carried out in triplicate with […] of fresh Opti-MEM containing 10 μM of compound or vehicle (0.1% DMSO) for 24 hours. […] ApoE concentration in the sample was calculated based on a standard curve derived using known amounts of purified apoE (from Biodesign).
The protein levels in the cells in the 24-well plates were measured using BCA Protein Assay Kit (from Pierce) and used to normalize the data. […] Sample apoE3 concentrations were represented relative to the DMSO treated cells.
The bars in FIG. 5 reflect the respective mean level apoE3 in the media for each compound with an indication of one […].

LDLR = experiment: SDS-PAGE/Western blot of LDLR expression in E3 astrocyte cells; type: cell-based, mouse; conditions: 10 μM, 24 hrs, Western blot, FIGS. 6 and 7
Procedure: Experiments were set up to test whether the claimed compounds increase LDLR expression in cortical astrocyte cells. The experiments involved treating mouse cortical astrocyte cells (E3 astrocyte cells) with the claimed compounds at 10 μM concentration for an incubation time of 24 hrs. DMSO solvent was used as a negative control, because the compounds were dissolved in DMSO when applied to the cells.
(§1) Western blot protocol and analysis was used to determine the LDLR levels in the E3 astrocyte cells. The western blot, otherwise known as a protein immunoblot, is a widely used analytical technique used to detect specific proteins in a cell culture or tissue sample. It uses gel electrophoresis to separate proteins by 3-D structure or denatured proteins by the length of the polypeptide. The proteins are then transferred to a membrane (typically nitrocellulose or PVDF), where they are stained with antibodies specific to the target protein. […] FIGS. 6 and 7 show gel images showing the effects the claimed compounds have on the target proteins. The protein bands show the presence and amount of each target protein present in the media from treated cells (compound numbers shown in the column headers).
(§2) In this case, after the 24-hour culture period, the treated cell media from cells treated with each respective compound were run by electrophoresis on polyacrylamide gel containing sodium dodecyl sulfate (SDS). The proteins from the SDS-PAGE process were then transferred to a nitrocellulose […] and stained.
(§3) FIGS. 6 and 7 show the presence of the following proteins in mouse E3 astrocyte cells: AbcA1, LDLR, ApoE3, and GAPDH. The GAPDH protein serves as the loading control protein for the western blot analysis. For each of the claimed compounds, FIGS. 6 and 7 show three samples run to determine the presence and amount of each indicated protein. The three samples for each treatment compound are indicated by the line under the compound number—the line stretches across three columns of protein bands.
(§4) The E3 astrocyte cells (1.6×10^4 cells/96-well plate) were grown for 1 day in RPMI, followed by a 24 hour equilibration in serum-free Opti-MEM (Life Technologies). Treatments were carried out in triplicate with […] of fresh Opti-MEM containing 10 μM of compound or vehicle (0.1% DMSO) for 24 hours. After the incubation time, the cellular media was collected as samples.
(§5) The collected samples were prepared for SDS-PAGE and western blot analysis by centrifuging and then extracting the protein by TCA-precipitation. The extracted protein was then resuspended in a Tris buffer.
(§6) After incubation and collection, the samples were run on a SDS-polyacrylamide gel (10% SDS). The SDS-polyacrylamide gel comprises the following:
(§7) Each sample was prepared to run on the SDS-polyacrylamide gel. About 20 μL of each sample was prepared to be run in the gel. The samples were prepared comprising the following:
(§8) The SDS-PAGE process was run with SDS-PAGE running buffer (Tris base, glycine, and 10% SDS) at 150 V until the dye front reached the bottom of the gel.
(§9) For the western blot portion of the analysis, the separated protein bands in the gel are then transferred to a nitrocellulose membrane by methods well known in the art. Following the western blot transfer, the blot is rinsed several times with dH2O to remove the salts. After blocking unreacted sites on the nitrocellulose membrane, all protein bands are stained with 0.5% Ponceau S (0.5 g Ponceau S, 1 ml Glacial HAc, 99 ml dH2O) and the target protein antibody.
(§10) The antibodies used for staining AbcA1 were obtained from Novus (NB100-2068). The antibodies used for staining LDLR were obtained from MBL International (JM-3839). The antibodies used for staining intracellular apoE were obtained from Meridian Life Science (K74180B). The antibodies used for staining GAPDH were obtained from Santa Cruz (sc-25778).

AbcA1 = experiment: SDS-PAGE/Western blot of AbcA1 expression in E3 astrocyte cells; type: cell-based, mouse; conditions: 10 μM, 24 hrs, Western blot, FIGS. 6 and 7
Excerpt: as §1, §2, §3
AbcA1 protein plays a key role in regulating cholesterol in biological systems and therefore affects amyloid beta plaque formation. The goal of the biological screen (results shown in FIGS. 6 and 7) was to find compounds that prevent amyloid beta (Aβ) plaque formation, one of the deleterious causes of Alzheimer's Disease.
as §4, §5, §6, §7, §8, §9, §10

SMILES	ApoE3 Levels in Cell Media, Average of Three Tests (apoE3)	ApoE3 Levels in Cell Media, Test 1 (apoE3)	ApoE3 Levels in Cell Media, Test 2 (apoE3)	ApoE3 Levels in Cell Media, Test 3 (apoE3)	LDLR expression (amount of LDLR protein) compared to the DMSO control (LDLR)	AbcA1 expression compared to the DMSO control (AbcA1)	apoE (apoE3) expression compared to the control DMSO, in words (apoE3; 10 μM, 24 hrs, ELISA of media)
O=S(=O)(c1ccc2ccccc2c1)N1CCOCC1 [Compound 95]	96.13 % of the DMSO control	86.87 % of the DMSO control	92.02 % of the DMSO control	109.5 % of the DMSO control	increase	–	–
O=S(=O)(NC1CCCCC1)c1ccc(-c2ccccc2)cc1 [Compound 136]	89.73 % of the DMSO control	89.58 % of the DMSO control	91.2 % of the DMSO control	88.41 % of the DMSO control	increase	–	–
O=S(=O)(c1ccc2ccccc2c1)N1CCCC1 [Compound 96]	118.6531 % of the DMSO control	104.9618 % of the DMSO control	132.594 % of the DMSO control	118.4035 % of the DMSO control	increase	–	–
CC(C)CNC(=O)c1ccc2ccccc2c1 [Compound 89]	129.8502 % of the DMSO control	110.4906 % of the DMSO control	131.1414 % of the DMSO control	147.9187 % of the DMSO control	increase	–	–
CCN(CC)S(=O)(=O)c1ccc2ccccc2c1 [Compound 129]	81.14 % of the DMSO control	80.4063 % of the DMSO control	82.82 % of the DMSO control	80.19 % of the DMSO control	–	decrease	–
O=S(=O)(c1ccc2ccccc2c1)N1CCCCC1 [Compound 97]	86.86 % of the DMSO control	90.22 % of the DMSO control	90.28 % of the DMSO control	80.08 % of the DMSO control	increase	–	–
CC(NS(=O)(=O)c1ccc(-c2ccccc2)cc1)c1ccccc1 (stereo not shown) [Compound 137]	88.63 % of the DMSO control	79.41 % of the DMSO control	86.65 % of the DMSO control	99.83 % of the DMSO control	increase	–	–
c1ccc(C(c2ccccc2)(c2ccc3ccccc3c2)N2CCOCC2)cc1 [Triarylmethyl Amine Compound No. 38, reference compound]	79.07 % of the DMSO control	76.4862 % of the DMSO control	92.35 % of the DMSO control	68.38 % of the DMSO control	–	significantly decrease or inhibit; also recorded: decrease	effectively decrease
CC(C)CNS(=O)(=O)c1ccc(-c2ccccc2)cc1 [Compound 133]	73.18 % of the DMSO control	81.61 % of the DMSO control	72.54 % of the DMSO control	65.4 % of the DMSO control	–	decrease	–
CCC(C)NC(=O)c1ccc2ccccc2c1 (stereo not shown) [Compound 88, naphthalene-2-carboxylic acid sec-butylamide]	100.678 % of the DMSO control	104.1856 % of the DMSO control	95.94 % of the DMSO control	101.9038 % of the DMSO control	increase	–	–
O=S(=O)(c1cccc2ccccc12)N1CCCC1 [Compound 123]	98.83 % of the DMSO control	85.69 % of the DMSO control	90.18 % of the DMSO control	120.6126 % of the DMSO control	–	–	–
c1ccc2cc(CN3CCOCC3)ccc2c1 [Compound 138]	104.8487 % of the DMSO control	103.8509 % of the DMSO control	97.61 % of the DMSO control	113.0808 % of the DMSO control	–	–	–
CCCCN(CCCC)S(=O)(=O)c1ccc2ccccc2c1 [Compound 128]	83.97 % of the DMSO control	85.63 % of the DMSO control	91.51 % of the DMSO control	74.78 % of the DMSO control	–	–	–
CCC(C)NS(=O)(=O)c1ccc(-c2ccccc2)cc1 (stereo not shown) [Compound 132]	86.84 % of the DMSO control	81.51 % of the DMSO control	85.61 % of the DMSO control	93.42 % of the DMSO control	–	–	–
